Measurements as given in patent US7629341B2, “Human ADAM-10 inhibitors” (Symphony Evolution, Inc., priority 2003, dated 2009).

What was measured:
[1] = target: T1, ADAM-10 (UniProt O14672); assay: ADAM-10 enzyme assay, cleavage of a fluorogenic 10-residue peptide; format: biochemical, mouse or human (mADAM-10 or hADAM-10); settings: in vitro;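 also: mouse or human ADAM-10 at 5 nM active enzyme, pH 8.0 HEPES buffer with CaCl2 and NP-40, compounds titrated 100 µM down to 0.5 nM, fluorescence read after 16 h at room temperature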
T1 sequence (O14672 1-748): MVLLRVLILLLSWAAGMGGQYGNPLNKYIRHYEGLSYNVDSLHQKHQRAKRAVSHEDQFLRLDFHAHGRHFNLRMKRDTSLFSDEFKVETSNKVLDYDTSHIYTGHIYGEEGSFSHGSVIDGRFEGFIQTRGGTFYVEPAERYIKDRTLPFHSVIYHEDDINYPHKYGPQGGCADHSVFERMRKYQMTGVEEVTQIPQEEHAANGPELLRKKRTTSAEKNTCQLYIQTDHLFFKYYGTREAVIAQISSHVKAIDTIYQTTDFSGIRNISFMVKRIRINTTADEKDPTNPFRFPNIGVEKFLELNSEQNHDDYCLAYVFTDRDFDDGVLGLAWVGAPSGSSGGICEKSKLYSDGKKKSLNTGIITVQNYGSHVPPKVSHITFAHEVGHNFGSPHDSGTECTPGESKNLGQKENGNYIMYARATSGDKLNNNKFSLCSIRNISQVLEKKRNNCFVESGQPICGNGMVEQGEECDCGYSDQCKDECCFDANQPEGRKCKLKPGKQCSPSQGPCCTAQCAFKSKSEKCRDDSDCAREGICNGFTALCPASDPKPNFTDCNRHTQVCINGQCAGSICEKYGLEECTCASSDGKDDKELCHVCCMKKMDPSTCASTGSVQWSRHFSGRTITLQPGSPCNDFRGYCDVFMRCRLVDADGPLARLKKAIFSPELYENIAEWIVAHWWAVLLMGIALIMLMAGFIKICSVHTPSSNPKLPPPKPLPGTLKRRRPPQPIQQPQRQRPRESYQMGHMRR
Method: mADAM-10 or hADAM-10 activity was measured as the ability to cleave a 10-residue peptide (DABCYL-Leu-Leu-Ala-Gln-Lys-*-LeuArg-Ser-Ser-Arg-EDANS). […] Enzyme was diluted to a final active concentration of 5 nM in Buffer A (50 mM HEPES 8.0, 100 mM NaCl, 1 mM CaCl2 and 0.01% NP-40). Serial dilutions for compounds were performed ranging from 100 μM to 0.5 nM using a Beckman Biomek 2000 in polypropylene plates (Greiner). […] This reaction was incubated for 16 hr at RT and fluorescence was read using identical conditions.

[2] = target: T2, MMP-1 (Fibroblast collagenase) (Homo sapiens, UniProt P03956); assay: In vitro metalloprotease inhibition, MMP-1; format: biochemical
T2 sequence (P03956 100-469): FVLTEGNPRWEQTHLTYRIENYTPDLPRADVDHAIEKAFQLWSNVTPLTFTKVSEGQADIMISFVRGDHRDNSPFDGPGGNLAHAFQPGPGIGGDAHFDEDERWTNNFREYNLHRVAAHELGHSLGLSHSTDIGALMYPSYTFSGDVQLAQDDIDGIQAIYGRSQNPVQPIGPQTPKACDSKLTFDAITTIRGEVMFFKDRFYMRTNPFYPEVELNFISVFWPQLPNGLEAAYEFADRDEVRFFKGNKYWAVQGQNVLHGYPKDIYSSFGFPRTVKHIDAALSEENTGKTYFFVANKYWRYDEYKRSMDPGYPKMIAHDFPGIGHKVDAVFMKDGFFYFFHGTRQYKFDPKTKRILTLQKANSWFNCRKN
From the text: (§1) Blank cells indicate lack of data only.

[3] = target: T3, MMP-2 (72 kDa gelatinase, gelatinase A) (Homo sapiens, UniProt P08253); assay: In vitro metalloprotease inhibition, MMP-2; format: biochemical
T3 sequence (P08253 110-660): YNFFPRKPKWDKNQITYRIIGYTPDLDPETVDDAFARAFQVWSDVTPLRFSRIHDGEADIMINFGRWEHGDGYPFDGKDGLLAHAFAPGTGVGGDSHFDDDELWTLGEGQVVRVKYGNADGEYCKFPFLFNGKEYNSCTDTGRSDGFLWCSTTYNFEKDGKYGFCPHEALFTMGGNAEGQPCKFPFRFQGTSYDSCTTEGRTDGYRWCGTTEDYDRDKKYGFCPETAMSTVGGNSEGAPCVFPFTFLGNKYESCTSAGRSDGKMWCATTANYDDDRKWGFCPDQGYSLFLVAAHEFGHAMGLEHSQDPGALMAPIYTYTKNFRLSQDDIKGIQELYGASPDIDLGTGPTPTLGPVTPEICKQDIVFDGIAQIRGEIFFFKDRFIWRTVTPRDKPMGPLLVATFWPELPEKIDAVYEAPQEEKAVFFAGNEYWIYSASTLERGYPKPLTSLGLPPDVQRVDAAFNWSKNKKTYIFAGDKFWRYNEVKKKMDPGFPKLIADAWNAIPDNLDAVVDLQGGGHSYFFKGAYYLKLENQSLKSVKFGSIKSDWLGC

[4] = target: MMP-3 (Stromelysin-1) (Homo sapiens, UniProt P08254); assay: In vitro metalloprotease inhibition, MMP-3; format: biochemical
From the text: as §1

[5] = target: MMP-13 (collagenase-3) (Homo sapiens, UniProt P45452); assay: In vitro metalloprotease inhibition, MMP-13; format: biochemical

Sequence of MMP-3 (Stromelysin-1) (P08254 100-477, species assumed): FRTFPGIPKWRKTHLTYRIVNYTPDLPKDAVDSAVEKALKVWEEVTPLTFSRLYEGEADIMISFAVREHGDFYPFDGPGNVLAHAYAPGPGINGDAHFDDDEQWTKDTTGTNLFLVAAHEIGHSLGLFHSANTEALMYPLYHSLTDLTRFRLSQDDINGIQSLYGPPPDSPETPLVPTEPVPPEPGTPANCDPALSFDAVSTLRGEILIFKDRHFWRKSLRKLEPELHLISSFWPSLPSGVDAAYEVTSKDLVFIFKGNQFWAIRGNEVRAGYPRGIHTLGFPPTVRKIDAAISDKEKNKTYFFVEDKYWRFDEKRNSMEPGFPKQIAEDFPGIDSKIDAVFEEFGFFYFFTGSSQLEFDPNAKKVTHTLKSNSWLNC

Row | IC50 [1] [nM] | IC50 [2] [nM] | IC50 [3] [nM] | IC50 [4] [nM] | IC50 [5] [nM] | SMILES
1 | < 50 | 1000 to 20000 | < 50 | 50 to 1000 | < 50 | O=C(CN1CCOCC1)NC(=O)N1CCN(S(=O)(=O)c2cc(F)c(Oc3ccc(Cl)cc3)c(F)c2)[C@@H](C(=O)NO)C1 [Entry 46]
2 | 50 to 1000 | > 20000 | < 50 | > 20000 | < 50 | CN1CCN(S(=O)(=O)c2cc(F)c(Oc3ccc(F)cc3)c(F)c2)[C@@H](C(=O)NO)C1 [Entry 14]
3 | < 50 | 1000 to 20000 | < 50 | < 50 | < 50 | O=C(NO)[C@H]1CN(S(=O)(=O)c2cc(F)c(O)c(F)c2)CCN1S(=O)(=O)c1cc(F)c(Oc2ccc(Cl)cc2)c(F)c1 [Entry 41]
4 | < 50 | 1000 to 20000 | < 50 | 50 to 1000 | < 50 | CN1CCN(CCS(=O)(=O)N2CCN(S(=O)(=O)c3cc(F)c(Oc4ccc(Cl)cc4)c(F)c3)[C@@H](C(=O)NO)C2)CC1 [Entry 55]
5 | < 50 | > 20000 | < 50 | 50 to 1000 | < 50 | O=C(NO)[C@H]1CN(C(=O)Cc2cccnc2)CCN1S(=O)(=O)c1cc(F)c(Oc2ccc(Cl)cc2)c(F)c1 [Entry 47]
6 | < 50 | 50 to 1000 | < 50 | < 50 | < 50 | O=C(NO)[C@H]1CN(C(=O)N2CCOCC2)CCN1S(=O)(=O)c1ccc(Oc2ccc(F)cc2)c(F)c1 [Entry 8]
7 | < 50 | > 20000 | < 50 | 50 to 1000 | < 50 | CCCCCCC(=O)N1CCN(S(=O)(=O)c2cc(F)c(Oc3ccc(Cl)cc3)c(F)c2)[C@@H](C(=O)NO)C1 [Entry 43]
8 | < 50 | 1000 to 20000 | < 50 | 1000 to 20000 | < 50 | COCCOC(=O)N1CCN(S(=O)(=O)c2cc(F)c(Oc3ccc(F)cc3)c(F)c2)[C@@H](C(=O)NO)C1 [Entry 10]
9 | 50 to 1000 | > 20000 | 50 to 1000 | 1000 to 20000 | 50 to 1000 | O=C(NO)[C@H]1CN(S(=O)(=O)CCN2CCOCC2)CCN1S(=O)(=O)c1cc(F)c(Oc2ccc(Cl)cc2)c(F)c1 [Entry 57]
10 | < 50 | > 20000 | < 50 | 1000 to 20000 | < 50 | CCOC(=O)N1CCN(CC(=O)N2CCN(S(=O)(=O)c3cc(F)c(Oc4ccc(Cl)cc4)c(F)c3)[C@@H](C(=O)NO)C2)CC1 [Entry 23]
11 | < 50 | > 20000 | < 50 | 1000 to 20000 | < 50 | CN(C)C(=O)CN1CCN(S(=O)(=O)c2cc(F)c(Oc3ccc(Cl)cc3)c(F)c2)[C@@H](C(=O)NO)C1 [Entry 20]
12 | < 50 | 50 to 1000 | < 50 | < 50 | < 50 | COCCOC(=O)N1CCN(S(=O)(=O)c2ccc(-c3cccc(F)c3)nc2)[C@@H](C(=O)NO)C1 [Entry 66]
13 | < 50 | 50 to 1000 | < 50 | 50 to 1000 | < 50 | O=C(NO)[C@H]1CN(S(=O)(=O)CCN2CCCCC2)CCN1S(=O)(=O)c1cc(F)c(Oc2ccc(Cl)cc2)c(F)c1 [Entry 53]
14 | 1000 to 20000 | > 20000 | > 20000 | 50 to 1000 | < 50 | CN(C)c1ccc2ccc(S(=O)(=O)N3CCN(S(=O)(=O)c4cc(F)c(Oc5ccc(Cl)cc5)c(F)c4)[C@@H](C(=O)NO)C3)cc2c1 [Entry 50]
15 | < 50 | 50 to 1000 | < 50 | < 50 | < 50 | COCCOC(=O)N1CCN(S(=O)(=O)c2ccc(Oc3ccc(Cl)cc3)c(F)c2)[C@@H](C(=O)NO)C1 [Entry 4]
16 | < 50 | 1000 to 20000 | < 50 | 1000 to 20000 | < 50 | O=C(NO)[C@H]1CN(C(=O)Cc2ccncc2)CCN1S(=O)(=O)c1cc(F)c(Oc2ccc(Cl)cc2)c(F)c1 [Entry 52]
17 | < 50 | 1000 to 20000 | < 50 | 50 to 1000 | < 50 | COCCN1CCN(S(=O)(=O)c2cc(F)c(Oc3ccc(Cl)cc3)c(F)c2)[C@@H](C(=O)NO)C1 [Entry 29]
18 | < 50 | < 50 | < 50 | < 50 | < 50 | O=C(NO)[C@H]1CN(C(=O)N2CCOCC2)CCN1S(=O)(=O)c1ccc(Oc2ccc(F)cc2)cc1 [Entry 2]
19 | < 50 | 1000 to 20000 | < 50 | 50 to 1000 | < 50 | O=C(NO)[C@H]1CN(C(=O)OCc2ccccc2)CCN1S(=O)(=O)c1cc(F)c(Oc2ccc(Cl)cc2)c(F)c1 [Entry 32]
20 | 50 to 1000 | > 20000 | 1000 to 20000 | > 20000 | 1000 to 20000 | O=C(NO)[C@H]1CN(S(=O)(=O)Cc2cc(Cl)cc(Cl)c2)CCN1S(=O)(=O)c1cc(F)c(Oc2ccc(Cl)cc2)c(F)c1 [Entry 61]
21 | < 50 | 1000 to 20000 | < 50 | 1000 to 20000 | 1000 to 20000 | CC(C)(C)OC(=O)N1CCN(S(=O)(=O)c2cc(F)c(Oc3ccc(F)cc3)c(F)c2)[C@@H](C(=O)NO)C1 [Entry 9]
22 | < 50 | < 50 | < 50 | < 50 | < 50 | COCCOC(=O)N1CCN(S(=O)(=O)c2ccc(Oc3ccc(F)cc3)cc2)[C@@H](C(=O)NO)C1 [Entry 1]
23 | < 50 | > 20000 | < 50 | 1000 to 20000 | 50 to 1000 | O=C(NO)[C@H]1CN(CC(=O)N2CCCC2)CCN1S(=O)(=O)c1cc(F)c(Oc2ccc(Cl)cc2)c(F)c1 [Entry 21]
24 | < 50 | 1000 to 20000 | < 50 | 50 to 1000 | < 50 | CCOC(=O)N1CCN(CCS(=O)(=O)N2CCN(S(=O)(=O)c3cc(F)c(Oc4ccc(Cl)cc4)c(F)c3)[C@@H](C(=O)NO)C2)CC1 [Entry 56]
25 | < 50 | > 20000 | < 50 | 50 to 1000 | < 50 | O=C(NO)[C@H]1CN(C(=O)CN2CCOCC2)CCN1S(=O)(=O)c1cc(F)c(Oc2ccc(Cl)cc2)c(F)c1 [Entry 25]
26 | < 50 | 1000 to 20000 | < 50 | 50 to 1000 | < 50 | O=C(CCl)NC(=O)N1CCN(S(=O)(=O)c2cc(F)c(Oc3ccc(Cl)cc3)c(F)c2)[C@@H](C(=O)NO)C1 [Entry 33]
27 | < 50 | 1000 to 20000 | < 50 | 50 to 1000 | < 50 | O=C(NO)[C@H]1CN(C(=O)NCCN2CCCC2)CCN1S(=O)(=O)c1cc(F)c(Oc2ccc(Cl)cc2)c(F)c1 [Entry 17]
28 | < 50 | > 20000 | < 50 | 1000 to 20000 | < 50 | CN1CCN(CC(=O)N2CCN(S(=O)(=O)c3cc(F)c(Oc4ccc(Cl)cc4)c(F)c3)[C@@H](C(=O)NO)C2)CC1 [Entry 24]
